Key:
[1] = In Vitro Binding affinity againist 5-hydroxytryptamine 2C receptor by displacing [3H]mesulergine from pig cortex
[2] = In Vitro Binding affinity againist 5-HT1A receptor by displacing [3H]8-OH-DPAT from pig cortex
[3] = In Vitro Binding affinity againist 5-hydroxytryptamine 1D receptor by displacing [125I]GTI from pig caudate

IC50 [1]	IC50 [2]	IC50 [3]	Structure (SMILES)
0.661 µM	4.6 nM	43 nM	NCCc1coc2ccc(C(N)=O)cc12
8.13 µM	72 nM	776 nM	NCCC1COc2ccc(C(N)=O)cc21 (stereo unspecified)
